Measured values reported in patent US20110124723A1, “Compounds for Preventing and Treating Plasmodium Infections” (UNIVERSITE PIERRE ET MARIE CURIE (PARIS 6), priority 2007, published 2011).
Structures can show the parent of a compound that is named as a salt.

Legend:
[1] = test system: P. yoelii sporozoites (265 BY strain); experiment: Challenge of mice with P. yoelii sporozoites, parasitemia in blood smears; assay type: in vivo; conditions: Swiss mice, 5,000 sporozoites IV; for reduction of parasitemia with respect to controls: after 12 days
Method: All animal were kept and used in accordance with institutional guidelines and European regulations. Female 6-week-old Swiss mice (René Janvier, Le Genest-Saint-Isle, France) weighing 24-31 g were randomly allotted to all groups.
The drugs tested were administered intra-peritoneally (IP). Monensin (MN) (Monensin A sodium salt, ref. M5273, Sigma) was diluted in PBS-methanol 2% and Nigericin (NG) (Nigericin sodium salt, ref. N7143, Sigma), another polyether ionophore antibiotic, in PBS-DMSO 2%.
The drugs were administrated on days −1, 0, +1, +2 (+40 h), and the mice challenged on day 0 by intravenous injection of 5,000 P. yoelii sporozoites (265 BY strain).
Group 1 received 25 mg/kg/day of MN and group 2 received PBS-methanol 2%. These groups received the drug and the solvent from day −1. Group 3 received 25 mg/kg/day of MN and group 4 received PBS-methanol 2% from day 0 post-infection. Group 5 received 35 mg/kg/day of NG and group 6 received PBS-DMSO 2% from day −1. Group 7 and 8 received 35 mg/kg/day of NG and PBS-DMSO 2% respectively from day 0 post-infection.
All groups were challenged with 5,000 sporozoites at day 0. Parasites were enumerated by blinded microscopic examination of Giemsa-stained tail-blood smears collected at day 3 until day 9, day 12 and day 15 post-infection. A mouse was considered negative when no parasites could be observed in 20,000 red blood cells (50 fields under a 50× light microscope objective) on any day during the period of observation.

[2] = test system: pre-erythrocytic development stage of P. yoelii; experiment: Real-time PCR quantification of the liver stage parasite burden; assay type: in vivo; conditions: mice, 25 mg/kg IP on days 0 and +1; 2.5×10^5 sporozoites IV; liver 40 h post-infection
Method: MN was administered IP on days 0 and day +1. Group 1 received 25 mg/kg of MN, whereas the control groups received the MN solvent (PBS-Methanol 2%). Mice were then challenged on day 0 by intra-venous injection with 2.5×10^5 P. yoelii sporozoites and sacrificed 40 h post-infection.
A piece of liver (0.2 g) was harvested and total RNA extracted using the Micro to Midi Kit (Invitrogen, France) according to the manufacturer's instructions and treated with Dnase Turbo DNA free (Ambion, France). Five micrograms of total RNA was reverse transcribed by Superscript II (Invitrogen) and an equivalent of 100 ng RNA was used for each TaqMan® PCR reactions on a MX4000 multiplex quantitative PCR system (Stratagene, France).
Mouse β-actin primers (forward […] (SEQ ID NO: 4), reverse […] (SEQ ID NO: 5); Invitrogen) and probe (HEX-[…]-BHQ2 (SEQ ID NO: 6); MWG biotech) were used for normalisation.
P. yoelii 18S rRNA and mouse β-actin PCR fragments were cloned into plasmids and used in a 10-fold dilution series to determine a standard curve.
Absolute transcript copy number for each gene was calculated based on the external standard curve. Quantitative parasite burden was expressed as the ratio between absolute copy numbers of P. yoelii 18S ribosomal cDNA and mouse β-actin cDNA to account for experimental differences. TaqMan® test sample and plasmid standards were done in quadruplet.

P. yoelii sporozoites [3] = experiment: Sporozoite migration assay (HepG2CD81 cells, FITC-dextran, flow cytometry); assay type: cell-based; conditions: all concentrations (5 μM, 5 nM and 5 picomolar); 2 h at 37° C.; vs untreated sporozoites
Method: P. yoelii sporozoites treated with three concentrations (5 μM, 5 nM and 5 picomolar) of MN were incubated with HepG2CD81 cells for 2 h at 37° C. in the continued presence of with 0.5 mg/ml FITC-dextran. After 2 h at 37° C., cells were washed and fixed with PBS-formaldehyde 1%, and FITC-positive cells were counted by flow cytometry.

P. yoelii sporozoites [4] = experiment: Invasion assay, first experiment: pre-treatment of sporozoites, then hepatocytes, EEF count; assay type: cell-based; conditions: washed, 48 h with hepatocytes
Method: Two experiments were performed.
The first experiment consisted in pre-treatment of P. yoelii sporozoites with MN at 5 pM, 0.5 μM, or 5 μM, for 1 h at room temperature then washed and added to hepatocytes. Sporozoites controls were pre-treated with medium alone and incubated 1 h at room temperature in the same conditions. Parasites were then incubated with hepatocytes for 48 h at 37° C. in 5% CO2, stained, and examined microscopically to determine the quantity of exo-erythrocytic forms (EEF) (Basco et al., 1999; Mahmoudi et al., 2003).

P. yoelii sporozoites [5] = experiment: Invasion assay, second experiment: infecting hepatocytes with sporozoites in the presence of MN, EEF count; assay type: cell-based; conditions: all concentrations (50 pM, 1 μM, 10 μM) present for 3 h during infection, then 45 h culture
Method: The second experiment consisted in infecting hepatocytes with sporozoites in the presence of MN at 50 pM, 1 μM, or 10 μM. After 3 h of incubation, MN was eliminated and the cultures were maintained 45 h at 37° C. in 5% CO2.
The cultures were stained and the quantity of exo-erythrocytic forms (EEF) was determined microscopically.

P. yoelii sporozoites [6] = experiment: Maturation assay: hepatocyte cultures infected with sporozoites, then treated; assay type: cell-based; conditions: all concentrations (50 pM, 1 μM, 10 μM) for 45 h after 3 h infection and washing
Method: The experiment consisted in infecting hepatocytes cultures with P. yoelii sporozoites for 3 h, washing the cultures and then treating them with MN 50 pM, 1 μM, or 10 μM, for 45 h at 37° C.

P. yoelii blood stage = experiment: Blood stage infection of mice with P. yoelii-infected red blood cells; assay type: in vivo; conditions: 25 mg/kg at day-3, day-2, day-1 before infection
Method: Two groups of mice were treated at day-3, day-2 and day-1 before infection with MN (25 mg/kg) or solvent (PBS-Methanol-2%). At day 0 the mice were inoculated IP with 4×10^5 P. yoelii-infected red blood cells. From day 3 post-infection, an enumeration of parasites in blood smears was conducted until day 10 post-infection.

[7] = test system: P. yoelii oocysts in Anopheles stephensi; experiment: Transmission to mosquito: oocysts in Anopheles stephensi midguts fed on treated mice; assay type: in vivo; conditions: Anopheles stephensi fed 2 hours on MN treated mice; 30 midguts dissected 8 days later
Method: The mice of the MN treated group and the control group of Example 3 were anesthetized and placed for 2 hours over a cage with 100 female laboratory-bred Anopheles stephensi. Oocysts were enumerated in 30 mosquito midguts dissected 8 days later.

| SMILES | protection from erythrocytic infection (mice with no parasite in blood smears) ([1]; 25 mg/kg/day IP daily for 3 days (treated, from day 0)) | protection from erythrocytic infection (mice with no parasite in blood smears) ([1]; 25 mg/kg/day IP daily for 4 days (pre-treated, from day -1)) | inhibition on parasite development (liver parasite burden, 18S rRNA/β-actin) [2] [%] | inhibition of sporozoites migration (P. yoelii sporozoites [3]) [%] | inhibition of parasite development (EEF) (P. yoelii sporozoites [4]; sporozoites pre-treated 1 h with 5 pM) [%] | inhibition of parasite development (EEF) (P. yoelii sporozoites [4]; sporozoites pre-treated 1 h with 0.5 μM) | inhibition of parasite development (EEF) (P. yoelii sporozoites [4]; sporozoites pre-treated 1 h with 5 μM) | inhibition of parasite development (EEF) (P. yoelii sporozoites [5]) | inhibition of parasite development (P. yoelii sporozoites [6]) | parasitemia course (P. yoelii blood stage; 4×10^5 infected red blood cells IP, blood smears day 3-10) | male gametocytes in blood (P. yoelii blood stage; vs untreated group) | oocysts in mosquito midguts [7] | reduction of parasitemia with respect to controls ([1]; 35 mg/kg/day IP daily for 3 days (treated)) [%] | reduction of parasitemia with respect to controls ([1]; 35 mg/kg/day IP daily for 4 days (pretreated)) [%] |
| --- | --- | --- | --- | --- | --- | --- | --- | --- | --- | --- | --- | --- | --- | --- |
| CC[C@@]1([C@H]2O[C@H]([C@H]3O[C@@](O)(CO)[C@H](C)C[C@@H]3C)C[C@H]2C)CC[C@H]([C@@]2(C)CC[C@]3(C[C@H](O)[C@@H](C)[C@@H]([C@H](C)[C@H](OC)[C@@H](C)C(=O)[O-])O3)O2)O1.[Na+] [MN, Monensin A sodium salt] | 100 % of the mice | 100 % of the mice | 96.8 | 93 | 96.26 | complete inhibition | complete inhibition | totally inhibited parasite development | completely inhibited parasite development | Increasing parasitemia, although delayed by comparison with the control group | no male gametocytes were observed | No oocyst could be observed |  |  |
| CO[C@@H]1C[C@@H](C[C@H]2CC[C@H](C)[C@H]([C@@H](C)C(=O)O)O2)O[C@]2(O[C@](C)([C@H]3CC[C@@](C)([C@@H]4O[C@@H]([C@H]5O[C@@](O)(CO)[C@H](C)C[C@@H]5C)C[C@@H]4C)O3)C[C@H]2C)[C@@H]1C [NG, Nigericin sodium salt, reference compound] |  |  |  |  |  |  |  |  |  |  |  |  | 51 | 71 |
